The source of these data is patent US20260356824A1, “COMPOUNDS FOR TREATING FIBROTIC DISEASES” (Meta-Immue Inc., priority 2023, published 2026).

For data set [1], the target named is T1, hLPAR1 (Homo sapiens, UniProt Q92633).
T1 construct: expressed in transfected cells
Put plainly: Ca2+ Flux Assay (B103 cells stably expressing hLPAR1). In kind it is cell-based. As to conditions: LPA-induced calcium release, Fura-2 AM, compound 20 min at RT. Put shortly: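 Fura-2 AM (5 μM) loaded 40 min at RT in HBSS/20 mM HEPES/probenecid/0.3% fatty-acid-free BSA after 2 h serum starvation. Compounds preincubated 20 min at RT, then LPA […] added. Intracellular calcium mobilization read as fluorescence intensity.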
(Calcium assays in cells follow changes in intracellular calcium, usually with a dye or a luminescent sensor.)

The nature of data set [2]: Liver microsomal stability, rat. The note with it: rat liver microsomes; 30 min; percent of parent remaining; read-out: Liver Microsomal stability (%), % of remaining after 30 min, Rat. It is filed as in vitro ADME. (Liver microsomes are a subcellular fraction often used to study metabolism.)
A short description of data set [3]: Liver microsomal stability, human. In kind it is in vitro ADME. The note with it: human liver microsomes; 30 min; percent of parent remaining; read-out: Liver Microsomal stability (%), % of remaining after 30 min, Human.
Data set [4] has as its system A2058 cells. In words: Chemotaxis Assay (LPA-induced migration of A2058 cells). The note with it: Homo sapiens, 4 to 8 hours, crystal violet 590 nm. It is filed as cell-based. The gist of the method:
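A2058 cells, starved 24 hr and treated with test compound or vehicle, were placed on a fibronectin-coated membrane ([…]) above […] in DMEM. After 4–8 h migration, migrated cells were crystal violet stained and read at 590 nm. Values are relative percentage of control.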

For data set [5], the target named is T2, BSEP (Homo sapiens, UniProt O95342).
T2 construct: ATP-dependent uptake of radiolabelled probe substrate
T2 sequence (O95342 whole entry): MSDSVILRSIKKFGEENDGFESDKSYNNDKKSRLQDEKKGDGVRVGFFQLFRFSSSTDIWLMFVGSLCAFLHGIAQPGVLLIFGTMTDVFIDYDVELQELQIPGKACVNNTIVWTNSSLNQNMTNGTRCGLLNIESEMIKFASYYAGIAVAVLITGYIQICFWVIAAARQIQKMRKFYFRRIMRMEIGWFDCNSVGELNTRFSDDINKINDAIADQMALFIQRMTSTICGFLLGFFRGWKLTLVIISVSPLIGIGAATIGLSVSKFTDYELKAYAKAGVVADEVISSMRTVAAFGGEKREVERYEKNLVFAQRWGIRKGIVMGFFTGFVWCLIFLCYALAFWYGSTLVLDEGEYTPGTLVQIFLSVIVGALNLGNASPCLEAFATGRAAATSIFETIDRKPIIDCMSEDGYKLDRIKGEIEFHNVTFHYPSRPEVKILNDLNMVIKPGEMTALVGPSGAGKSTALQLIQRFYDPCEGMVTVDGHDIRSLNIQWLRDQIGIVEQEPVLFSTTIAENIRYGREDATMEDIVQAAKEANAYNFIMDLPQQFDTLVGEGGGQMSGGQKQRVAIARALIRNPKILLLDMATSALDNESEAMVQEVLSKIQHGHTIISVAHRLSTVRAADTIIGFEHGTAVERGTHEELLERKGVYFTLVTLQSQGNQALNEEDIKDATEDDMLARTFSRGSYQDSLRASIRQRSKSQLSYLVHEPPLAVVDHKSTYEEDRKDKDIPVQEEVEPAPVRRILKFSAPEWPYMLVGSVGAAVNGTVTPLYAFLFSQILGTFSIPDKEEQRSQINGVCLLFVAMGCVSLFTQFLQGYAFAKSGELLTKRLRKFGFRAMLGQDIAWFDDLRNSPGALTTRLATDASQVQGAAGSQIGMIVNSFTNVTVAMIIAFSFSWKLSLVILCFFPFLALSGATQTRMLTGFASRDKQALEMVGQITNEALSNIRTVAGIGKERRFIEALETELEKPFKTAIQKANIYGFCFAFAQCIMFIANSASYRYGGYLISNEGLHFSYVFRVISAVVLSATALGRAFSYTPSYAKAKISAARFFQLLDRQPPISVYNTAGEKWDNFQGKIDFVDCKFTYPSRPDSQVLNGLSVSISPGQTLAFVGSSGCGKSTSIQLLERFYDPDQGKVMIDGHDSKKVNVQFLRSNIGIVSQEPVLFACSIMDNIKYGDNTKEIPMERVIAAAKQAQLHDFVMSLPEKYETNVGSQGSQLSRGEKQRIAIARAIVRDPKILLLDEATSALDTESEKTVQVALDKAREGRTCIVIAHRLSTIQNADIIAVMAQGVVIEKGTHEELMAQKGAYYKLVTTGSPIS
Put plainly: Bile Salt Export Pump (BSEP) Assay, Sf9 insect cell vesicles expressing BSEP. In kind it is in vitro ADME. As to conditions: 10 μM test compound, probe substrate 1 μM [3H]-taurocholic acid, 15 min incubation. The protocol:
• 1. A stock solution was prepared with the test article (Sponsor compound) in DMSO. • 2. All final assay solutions of probe substrate, reference inhibitor or test article contain 0.5% (v/v) DMSO (vehicle control). • 3. Test article concentrations in transport study were specified in the Summary Table of Experimental Conditions of this protocol.
• 1. Bovine Serum Albumin (BSA) • 2. Dimethyl sulfoxide (DMSO) • 3. BSEP Assay Uptake Buffer (10 mM HEPES-Tris pH 7.4, 0.1 M KNO3, 12.5 mM Mg(NO3)2, 50 mM sucrose) • 4. BSEP Wash Buffer (10 mM Tris-HCl pH 7.4, 0.1 M KNO3, 50 mM sucrose) • 5. BSEP Blocking Buffer (BSEP Wash Buffer+0.5 mg/mL BSA) • 6. 25 mM Mg-ATP solution • 7. 25 mM AMP solution • 8. Corning Costar 96-well flat-bottom, untreated, white Assay Plate (Corning Cat. No. 3912) • 9. Millipore MultiscreenHTs Filtration Plate, glass fiber FB—1.0/0.65 μm (Cat. No. MSFBN6B10 or glass fiber FC—1.2/0.65 μm (Cat. No. MSFCN6B10) • 10. Millipore MultiscreenHTS Vacuum Manifold (Cat. No. MSVMHTS00) • 11. Probe substrates listed in Table 1 • 12. Reference inhibitors listed in Table 1 • 13. Test articles
• 1. Test system: • a. 96-well flat bottom plate containing a suspension of vesicles and a corresponding 96-well glass fiber filtration plate. • b. Transport experiments were conducted in the Assay Uptake Buffer. • c. Transport experiment was initiated with the addition of Mg-ATP or AMP to appropriate wells. • d. Each condition was run in triplicate wells. • 2. Prepared the 96-well flat-bottom assay plate. • a. Incubated the assay plate with the Blocking Buffer for 60 min at 37 °C with orbital shaking at approximately 90 rpm. (NOTE: This is done to prevent non-specific binding of vesicles to polystyrene assay plate). • b. After 60 min, completely removed the Blocking Buffer from the assay plate. • c. The Assay Uptake Buffer solutions were added to the assay plate wells as follows: • i. For probe substrate transport assays, the Assay Uptake Buffer contained vesicles and the probe substrate at the specified concentration. • ii. For the reference inhibition assay, the Assay Uptake Buffer contained vesicles, the reference inhibitor and the probe substrate at the specified concentration in Table 1. • iii. For the test article assays, Assay Uptake Buffer contained vesicles, the test article and the probe substrate at the specified concentration in Table 1. • 3. Incubate at 37 °C with orbital shaking at approximately 90 rpm for the time period specified in Table 1 of this protocol. • 4. Using the 25 mM Mg-ATP or AMP stocks, Mg-ATP or AMP was added to test wells of flat bottom assay plate to a final concentration of 5 mM. • 5. Incubated at 37 °C with orbital shaking at approximately 90 rpm for the incubation time specified in Table 1 of this protocol. • 6. Prepared the 96-well glass fiber filtration plate: • a. Incubated the filtration plate with the Blocking Buffer for 2 min at room temperature with under no vacuum. • b. Turned on vacuum and allowed Blocking Buffer to filter through plate. • c. With vacuum on, filter plate was washed with ice cold Wash Buffer. • 7. At the end of the specified incubation time indicated in […] of this protocol, vesicle transport was quenched by adding ice cold Wash Buffer to samples in 96-well assay plate. • 8. Mixed assay samples (now diluted in Wash Buffer) with pipette and transfered 175 μL into the 96-well glass fiber filtration plate to separate vesicles from buffer by applying vacuum. • 9. Washed filter plate wells with ice cold Wash Buffer. • 10. Allowed filter plate to dry under vacuum. • 11. Transfered filters to scintillation sample plate and added 700 μL of scintillation fluid to the above samples. • 12. Counted the above samples on a 1450 Microbeta (Perkin-Elmer).
• 1. The amount of substrate was quantified with radiometric detection on a 1450 Microbeta (Perkin-Elmer). • 2. For transport study samples run in triplicate, the mean and standard deviation of the replicates were reported. • 3. […]

T1 sequence (Q92633 whole entry): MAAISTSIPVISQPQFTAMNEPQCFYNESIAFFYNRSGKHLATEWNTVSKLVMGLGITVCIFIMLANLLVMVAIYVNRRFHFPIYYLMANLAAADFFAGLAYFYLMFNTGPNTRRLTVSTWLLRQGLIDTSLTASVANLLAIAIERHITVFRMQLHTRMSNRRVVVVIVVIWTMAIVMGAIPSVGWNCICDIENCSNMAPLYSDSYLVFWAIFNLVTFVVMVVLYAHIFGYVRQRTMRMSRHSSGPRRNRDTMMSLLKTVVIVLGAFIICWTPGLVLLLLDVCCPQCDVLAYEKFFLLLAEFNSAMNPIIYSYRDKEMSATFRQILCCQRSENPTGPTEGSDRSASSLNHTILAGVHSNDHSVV

For orientation: IC50 means the point on the concentration scale where inhibition reaches its midpoint. One may read the fraction remaining as the share of the starting amount still present when the sample was taken. Consider `Cn1nnc(C2CCN(c3ccc(C4(C(=O)O)CC4)cc3)CC2)c1Nc1cccc(-c2ccccc2)n1` [Compound 6], for which the IC50 was in the range of 10 to 200 nM in data set [1] and 500 to 5000 nM in data set [4]. Besides, the amount remaining at 0.5 h in data set [2] and in data set [3] was greater than 75% throughout.

Regarding `Cc1noc(C2CCN(c3ccc(C4(C(=O)NS(=O)(=O)C(C)(C)CO)CC4)cc3)CC2)c1NC(=O)O[C@H](C)c1ccccc1` [Compound 70], the IC50 was less than 10 nM in data set [1] and less than 100 nM in data set [4]. In addition, the share remaining at 0.5 h in data set [2] and in data set [3] was greater than 75% each time.

As usually defined, the inhibition is the relative decrease from the control value, in per cent. `C[C@@H](OC(=O)Nc1c(C2CCN(c3ccc(C4(C(=O)O)CC4)cc3)CC2)nnn1C)c1ccccc1` [Compound 60, (R)-1-(4-(4-(1-methyl-5-(((1-phenylethoxy)carbonyl)amino)-1H-1,2,3-triazol-4-yl)piperidin-1-yl)phenyl)cyclopropane-1-carboxylic acid]: the 50% inhibitory concentration (IC50) in data set [1] is 10 to 200 nM; in data set [4] it was 100 to 500 nM. In addition, the inhibition at 0.25 h, 10 µM in data set [5] was no more than 25%.

As to `Cc1noc(C2CCN(c3ccc(C4(C(=O)NS(=O)(=O)C(C)C(=O)O)CC4)cc3)CC2)c1NC(=O)O[C@H](C)c1ccccc1` (stereo partly shown) [Compound 71], the values for the IC50 in data set [1] and in data set [4] were less than 10 nM and less than 100 nM, respectively. The inhibition at 0.25 h, 10 µM in data set [5] was 25 to 50%.

In the case of `C[C@@H](OC(=O)Nc1ccsc1C1CCN(c2ccc(C3(C(=O)O)CC3)cc2)CC1)c1ccccc1` [Compound 93], the IC50 in data set [1] was 10 to 200 nM; in data set [4], less than 100 nM. Moreover, the inhibition at 0.25 h, 10 µM in data set [5] fell in the range of 50 to 75%.

Regarding `C[C@@H](OC(=O)Nc1cc(Cl)sc1C1CCN(c2ccc(C3(C(=O)O)CC3)cc2)CC1)c1ccccc1` [Compound 92, 1-(4-{4-[5-chloro-3-({[(1R)-1-phenylethoxy]carbonyl}amino)thiophen-2-yl]piperidin-1-yl}phenyl)cyclopropane-1-carboxylic acid], the IC50 in data set [1] is 10 to 200 nM; in data set [4], less than 100 nM. Also, the inhibition at 0.25 h, 10 µM in data set [5] was 75 to 100%.

With `CCCN(C)C(=O)OCc1c(C)noc1C1CCN(c2ccc(C3(C(=O)NS(=O)(=O)C(F)(F)F)CC3)cc2)CC1` [Compound 13], the IC50 is no less than 3000 nM in data set [1] and no less than 5000 nM in data set [4]. The fraction remaining at 0.5 h in data set [2] is 50 to 75%; in data set [3], no more than 25%.

Consider `Cc1cc(C2(C(=O)O)CC2)ccc1N1CCC(c2onc(C)c2NC(=O)O[C@H](C)c2ccccc2)CC1` [Compound 61], for which the figures for the IC50 in data set [1] and in data set [4] were less than 10 nM and less than 100 nM, respectively. In addition, the inhibition at 0.25 h, 10 µM in data set [5] is 50 to 75%.

Consider `C[C@@H](OC(=O)Nc1c(C2CCN(c3ccc(C4(C(=O)O)CC4)cc3)CC2)cnn1C)c1ccccc1` [Compound 55], for which the IC50 was 10 to 200 nM in data set [1] and 100 to 500 nM in data set [4]. Further, the inhibition at 0.25 h, 10 µM in data set [5] is 25 to 50%.

With `Cc1noc(C2CCN(c3ccc(C4(C(=O)NS(=O)(=O)CC(C)(C)C(=O)O)CC4)cc3)CC2)c1NC(=O)O[C@H](C)c1ccccc1` [Compound 78, (R)-2,2-dimethyl-3-(N-(1-(4-(4-(3-methyl-4-(((1-phenylethoxy)carbonyl)amino)isoxazol-5-yl)piperidin-1-yl)phenyl)cyclopropane-1-carbonyl)sulfamoyl)propanoic acid], the IC50 is less than 10 nM in data set [1] and less than 100 nM in data set [4]. Also, in data set [5], the inhibition at 0.25 h, 10 µM lay within 25 to 50%.

For `Cc1ccccc1[C@@H](C)OC(=O)Nc1c(C)noc1C1CC2(C1)CN(c1ccc(C3(C(=O)NS(C)(=O)=O)CC3)cc1)C2` [Compound 7], the figures for the IC50 in data set [1] and in data set [4] were less than 10 nM and less than 100 nM, respectively. Moreover, the inhibition at 0.25 h, 10 µM in data set [5] was in the range of 75 to 100%.

As to `Cc1noc(C2CCN(c3ccc(C4(C(=O)O)CC4)nc3)CC2)c1NC(=O)O[C@H](C)c1ccccc1` [Compound 90], the IC50 in data set [1] was 10 to 200 nM; in data set [4] it was 100 to 500 nM. Besides, the inhibition at 0.25 h, 10 µM in data set [5] lay in the range of 25 to 50%.

Turning to `Cc1noc(C2CCN(c3ccc(C4(C(=O)NS(=O)(=O)C(C)CC(=O)O)CC4)cc3)CC2)c1NC(=O)O[C@H](C)c1ccccc1` (stereo partly shown) [Compound 72], the IC50 in data set [1] was less than 10 nM; in data set [4] it was less than 100 nM. Moreover, the inhibition at 0.25 h, 10 µM in data set [5] was no more than 25%.

On to `Cc1noc([C@@H]2CCN(c3ccc(C4(C(=O)O)CC4)cc3)[C@H](C)C2)c1NC(=O)O[C@H](C)c1ccccc1` (single isomer, unassigned) [Compound 21], for which the IC50 in data set [1] was 10 to 200 nM; in data set [4], less than 100 nM. The fraction remaining at 0.5 h in data set [2] and in data set [3] was greater than 75% throughout.

As to `C[C@@H](OC(=O)Nc1c(C2CCN(c3ccc(C4(C(=O)NS(=O)(=O)CCO)CC4)cc3)CC2)nnn1C)c1ccccc1` [Compound 59], the IC50 in data set [1] was less than 10 nM; in data set [4] it was 100 to 500 nM. In addition, in data set [5], the inhibition at 0.25 h, 10 µM was no more than 25%.

Take `Cc1noc(C2CCN(c3ccc(C4(C(=O)O)CC4)cc3)CC2)c1C(O)CCCc1ccccc1` (stereo not shown) [Compound 20]: the IC50 in data set [1] was 10 to 200 nM; in data set [4], 100 to 500 nM. Also, the inhibition at 0.25 h, 10 µM in data set [5] fell in the range of 75 to 100%.

For the compound `CNC(=O)C1(c2ccc(N3CCC(c4onc(C)c4NC(=O)O[C@H](C)c4ccccc4)CC3)cc2)CC1` [Compound 65], the IC50 fell in the range of 10 to 200 nM in data set [1] and 100 to 500 nM in data set [4]. In addition, the inhibition at 0.25 h, 10 µM in data set [5] was in the range of 50 to 75%.

Regarding `Cc1ccccc1[C@@H](C)OC(=O)Nc1c(C)noc1C1CC2(C1)CN(c1ccc(C3(C(=O)O)CC3)cc1)C2` [Compound 33, 1-(4-{6-[3-methyl-4-({[(1R)-1-(2-methylphenyl)ethoxy]carbonyl}amino)-1,2-oxazol-5-yl]-2-azaspiro[3.3]heptan-2-yl}phenyl)cyclopropane-1-carboxylic acid], the IC50 was less than 10 nM in data set [1] and less than 100 nM in data set [4]. In addition, the inhibition at 0.25 h, 10 µM in data set [5] was in the range of 75 to 100%.

On to `Cc1noc(C2CC3(C2)CN(c2ccc(C4(C(=O)NS(C)(=O)=O)CC4)cc2)C3)c1NC(=O)O[C@H](C)c1ccccc1` [Compound 9], for which the IC50 in data set [1] was less than 10 nM; in data set [4], 100 to 500 nM. For the same compound, in data set [5], the inhibition at 0.25 h, 10 µM was in the range of 50 to 75%.

In the case of `COc1cc(C2(C(=O)O)CC2)ccc1N1CCC(c2onc(C)c2NC(=O)O[C@H](C)c2ccccc2)CC1` [Compound 63, (R)-1-(3-methoxy-4-(4-(3-methyl-4-(((1-phenylethoxy)carbonyl)amino)isoxazol-5-yl)piperidin-1-yl)phenyl)cyclopropane-1-carboxylic acid], the IC50 in data set [1] is less than 10 nM; in data set [4], less than 100 nM. For the same compound, the inhibition at 0.25 h, 10 µM in data set [5] is no more than 25%.
